Values after ≈ are worked out from the molar mass of the structure shown.
Columns and labels:
[1] = test system: Escherichia coli; assay: Antibiofilm activity against Escherichia coli 0157:H7 at 6.25 uM incubated for 24 hr by crystal violet staining based assay relative to control; assay type: functional
[2] = test system: Escherichia coli; assay: Antibiofilm activity against Escherichia coli 0157:H7 at 200 uM incubated for 24 hr by crystal violet staining based assay relative to control; assay type: functional
[3] = Inhibition of Escherichia coli 0157:H7 AI-2 incubated for 3.5 hrs in dark condition by microplate reader analysis
[4] = test system: Staphylococcus aureus; assay: Antibiofilm activity against Staphylococcus aureus 6538 at 0.78 ug/ml incubated for 24 hr by crystal violet staining based assay relative to control; assay type: functional
[5] = test system: Bacillus subtilis; assay: Bactericidal activity against Bacillus subtilis as by CLSI-based micro broth dilution method; assay type: functional
[6] = test system: Staphylococcus aureus; assay: Antibiofilm activity against Staphylococcus aureus BAA44 incubated for 24 hr by crystal violet staining based assay; assay type: functional
[7] = test system: Staphylococcus aureus; assay: Antibiofilm activity against Staphylococcus aureus BAA44 at 0.78 ug/ml incubated for 24 hr by crystal violet staining based assay relative to control; assay type: functional
[8] = test system: Staphylococcus aureus; assay: Antibiofilm activity against Staphylococcus aureus 6538 incubated for 24 hr by crystal violet staining based assay; assay type: functional
[9] = test system: Staphylococcus aureus; assay: Antibacterial activity against Staphylococcus aureus ATCC 29213 assessed as bacterial growth inhibition incubated for 18 hrs by CLSI-based broth microdilution method; assay type: functional
[10] = test system: Staphylococcus aureus; assay: Antibacterial activity against Staphylococcus aureus MSSA1 assessed bacterial growth inhibition by CLSI-based broth microdilution method; assay type: functional
[11] = test system: Clostridioides difficile; assay: Antibacterial activity against Clostridium difficile ATCC 43255 assessed as bacterial growth inhibition incubated for 24 hrs by two-fold serial dilution method; assay type: functional
[12] = test system: Staphylococcus xylosus; assay: Inhibition of Staphylococcus xylosus ATCC 700404 IGPD at 40 ug/ml relative to control; settings: dose 40.0 µg/ml
[13] = Inhibition of FAS2 in Mycobacterium smegmatis mc2 155 transfected with pVV16 vector by BCA assay; parameters: species or system Mycolicibacterium smegmatis
[14] = Inhibition of FAS1 in Mycobacterium smegmatis mc2 155 transfected with pVV16 vector expressing Rv0636 by BCA assay; parameters: species or system Mycolicibacterium smegmatis
[15] = test system: Staphylococcus xylosus; assay: Antibacterial activity against Staphylococcus xylosus ATCC 700404 assessed bacterial growth inhibition incubated for 24 hrs by Broth microdilution method; assay type: functional
[16] = Inhibition of FAS2 in Mycobacterium smegmatis mc2 155 transfected with pVV16 vector expressing Rv0636 by BCA assay; parameters: species or system Mycolicibacterium smegmatis
[17] = test system: Escherichia coli; assay: Antibacterial activity against Escherichia coli ANS1 assessed as bacterial growth inhibition incubated for 20 hrs by broth microdilution method; assay type: functional
[18] = Inhibition of His-tagged Escherichia coli ANS1 FabG using acetoacetyl-CoA as substrate by spectrometric analysis
[19] = Inhibition of His-tagged Escherichia coli ANS1 Fab1 using trans-2-octanoyl-N-acetylcysteamine as substrate by spectrometric analysis
[20] = Inhibition of FAS1 in Mycobacterium smegmatis mc2 155 transfected with pVV16 vector by BCA assay; parameters: species or system Mycolicibacterium smegmatis
[21] = test system: Staphylococcus xylosus; assay: Antibiofilm activity against Staphylococcus xylosus ATCC 700404 at 20 ug/ml incubated for 24 hr by crystal violet staining based assay relative to control; assay type: functional
[22] = test system: Cutibacterium acnes; assay: Antibacterial activity against Propionibacterium acnes KCTC3220 assessed as bacterial growth inhibition incubated for 48 hrs by broth microdilution assay; assay type: functional
[23] = test system: Listeria monocytogenes; assay: Antibiofilm activity against Listeria monocytogenes CMCC 54004 at 20 ug/ml by crystal violet staining based assay relative to control; assay type: functional
[24] = test system: Micrococcus luteus; assay: Antibacterial activity against Micrococcus luteus assessed bacterial growth inhibition by CLSI-based micro broth dilution method; assay type: functional
[25] = test system: Cutibacterium acnes; assay: Antibacterial activity against Propionibacterium acnes KCTC3314 assessed as bacterial growth inhibition incubated for 48 hrs by broth microdilution assay; assay type: functional
[26] = test system: Pectobacterium brasiliense; assay: Antibiofilm activity against Pectobacterium brasiliense Pb1692 at 0.4 ug/ml incubated for 72 hr by crystal violet staining based assay relative to control; assay type: functional
[27] = test system: Staphylococcus aureus; assay: Antibacterial activity against Staphylococcus aureus ATCC 25923 assessed as bacterial growth inhibition by CLSI-based broth micro-dilution method; assay type: functional
[28] = test system: Staphylococcus aureus; assay: Antibacterial activity against Staphylococcus aureus ATCC 6538 assessed bacterial growth inhibition incubated for 24 hrs by CLSI-based broth dilution method; assay type: functional
[29] = test system: Candida albicans; assay: Antibiofilm activity against Candida albicans ATCC SC5314 at 74.55 ug/ml incubated for 24 hr by crystal violet staining based assay relative to control; assay type: functional
[30] = test system: Escherichia coli; assay: Antibiofilm activity against Escherichia coli 0157:H7 at 50 ug/ml incubated for 10 hrs by crystal violet staining based assay relative to control; assay type: functional
[31] = test system: Candida albicans; assay: Antifungal activity against Candida albicans SC5314 assessed as fungal growth inhibition incubated for 48 hrs by CLSI-based two-fold serial dilution method; assay type: functional
[32] = test system: Streptococcus pyogenes; assay: Antibiofilm activity against Streptococcus pyogenes ATCC 19615 at 23.4 ug/ml incubated for 1 hr by crystal violet staining based assay relative to control; assay type: functional; settings: dose 23.4 µg/ml
[33] = test system: Klebsiella pneumoniae; assay: Antibacterial activity against Klebsiella pneumoniae assessed bacterial growth inhibition by CLSI-based micro broth dilution method; assay type: functional
[34] = test system: Staphylococcus aureus; assay: Antibacterial activity against Staphylococcus aureus ATCC 29213 assessed as bacterial growth inhibition by CLSI-based broth micro-dilution method; assay type: functional
[35] = test system: Mycobacterium tuberculosis; assay: Antitubercular activity against Mycobacterium tuberculosis H37Rv assessed as bacterial growth inhibition measured for 9 days; assay type: functional; settings: 216 h, time 9 day
[36] = test system: Staphylococcus aureus; assay: Antibiofilm activity against Staphylococcus aureus SA1199B incubated for 18 to 24 hrs by broth microdilution method; assay type: functional; settings: time 18-24 hrs
[37] = test system: Cutibacterium acnes; assay: Antibacterial activity against Propionibacterium acnes KCTC5933 assessed as bacterial growth inhibition incubated for 48 hrs by broth microdilution assay; assay type: functional
[38] = test system: Candida albicans; assay: Inhibition of Candida albicans SC5314 hyphal transition at 74.55 ug/ml incubated for 24 hrs relative to control; assay type: functional
[39] = test system: Streptococcus pyogenes; assay: Antibacterial activity against Streptococcus pyogenes ATCC 19615 assessed bacterial growth inhibition incubated for 24 hrs by double dilution method; assay type: functional
[40] = test system: Staphylococcus aureus; assay: Antibiofilm activity against Staphylococcus aureus RN4220 at 8 to 256 ug/ml incubated for 18 to 24 hrs by broth microdilution method relative to control; assay type: functional; settings: dose 8-256 µg/ml; time 18-24 hrs; at 8 to 256 µg/mL
[41] = test system: Cutibacterium acnes; assay: Antibacterial activity against Propionibacterium acnes KCTC5527 assessed as bacterial growth inhibition incubated for 48 hrs by broth microdilution assay; assay type: functional
[42] = test system: Staphylococcus aureus; assay: Antibiofilm activity against Staphylococcus aureus RN4220 incubated for 18 to 24 hrs by broth microdilution method; assay type: functional; settings: time 18-24 hrs
[43] = test system: Candida albicans; assay: Antifungal activity against Candida albicans SC5314 assessed as fungal growth inhibition incubated for 48 hrs by CLSI protocol based assay; assay type: functional
[44] = test system: Staphylococcus aureus; assay: Inhibition of Staphylococcus aureus ATCC 6538 LDH at 7.81 ug/ml relative to control; settings: dose 7.81 µg/ml
[45] = test system: Mycobacterium tuberculosis; assay: Antitubercular activity against XDR Mycobacterium tuberculosis X24 assessed as bacterial growth inhibition measured for 9 days; assay type: functional; settings: X24, 216 h, time 9 day
[46] = test system: Staphylococcus aureus; assay: Antibiofilm activity against Staphylococcus aureus SA1199B at 128 ug/ml incubated for 18 to 24 hrs by broth microdilution method relative to control; assay type: functional; settings: time 18-24 hrs
[47] = test system: Staphylococcus aureus; assay: Antibacterial activity against Staphylococcus aureus BAA 1717 assessed as bacterial growth inhibition by CLSI-based broth micro-dilution method; assay type: functional
[48] = target: T1, Sortase B (Staphylococcus aureus, UniProt Q2FZE3); assay: Inhibition of Staphylococcus aureus sortase b transpeptidation expressed in Escherichia coli BL21 (DE3) cells using Fluorescent peptide as substrate at 16 ug/ml preincubated for 30 mins followed by substrate addition and measured for 1 hr by FRET assay
T1 sequence (Q2FZE3 whole entry): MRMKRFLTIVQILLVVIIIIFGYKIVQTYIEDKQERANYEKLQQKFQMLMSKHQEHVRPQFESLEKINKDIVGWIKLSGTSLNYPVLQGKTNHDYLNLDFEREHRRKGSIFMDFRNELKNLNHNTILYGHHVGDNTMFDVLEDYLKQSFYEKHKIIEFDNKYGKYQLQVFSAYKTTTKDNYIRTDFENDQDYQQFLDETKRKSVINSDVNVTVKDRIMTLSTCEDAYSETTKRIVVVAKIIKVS

[49] = test system: Staphylococcus aureus; assay: Inhibition of Staphylococcus aureus ATCC 6538 IDH at 7.81 ug/ml relative to control; settings: dose 7.81 µg/ml
[50] = test system: Staphylococcus aureus; assay: Antibacterial activity against Staphylococcus aureus BAA 1707 assessed as bacterial growth inhibition by CLSI-based broth micro-dilution method; assay type: functional
[51] = test system: Staphylococcus aureus; assay: Antibacterial activity against Staphylococcus aureus Newman assessed as bacterial growth inhibition by CLSI-based broth micro-dilution method; assay type: functional
[52] = test system: Staphylococcus aureus; assay: Inhibition of Staphylococcus aureus ATCC 6538 Catalase at 7.81 ug/ml relative to control; settings: dose 7.81 µg/ml
[53] = test system: Staphylococcus aureus; assay: Antibacterial activity against Staphylococcus aureus 8325-4 assessed as bacterial growth inhibition by CLSI-based broth micro-dilution method; assay type: functional
[54] = test system: Staphylococcus aureus; assay: Antibiofilm activity against Staphylococcus aureus RN4220 at 1 ug/ml incubated for 18 to 24 hrs by broth microdilution method relative to control; assay type: functional; settings: time 18-24 hrs
[55] = test system: Mycobacterium tuberculosis; assay: Antitubercular activity against XDR Mycobacterium tuberculosis X59 assessed as bacterial growth inhibition measured for 9 days; assay type: functional; settings: X59, 216 h, time 9 day
[56] = test system: Escherichia coli; assay: Antibiofilm activity against Escherichia coli 0157:H7 at 25 ug/ml incubated for 10 hrs by crystal violet staining based assay relative to control; assay type: functional

For COc1cc(O)ccc1/C=C/C(=O)c1ccc(O)cc1 [ECHINATIN], the inhibition at 6.25 µM [1] was 40%, the inhibition at 200 µM [2] was 71.5% and the IC50 [3] was 21.7 µM.
With CC(C)=CCc1c(O)ccc(C(=O)/C=C/c2ccc(O)cc2)c1O [ISOBAVACHALCONE] the inhibition at 0.78 µg/mL [4] was 75%, the MBC [5] was 4 mg/L (≈ 12.3 µM) and the MBIC [6] was 0.78 µg/mL. For the same compound, the inhibition at 0.78 µg/mL [7] was 80%, the MBIC [8] was 0.78 µg/mL and the MIC [9] was 4 mg/L (≈ 12.3 µM). For the same compound, the MIC [10] was 0.5 mg/L (≈ 1.54 µM) and the MIC [11] was 4 mg/L (≈ 12.3 µM).
O=C(/C=C/c1ccc(O)cc1)c1ccc(O)cc1O [ISOLIQUIRITIGENIN] gave an inhibition [12] of 60%, an IC50 [13] of 7 mg/L (≈ 27.3 µM) and an IC50 [14] of 96 mg/L (≈ 375 µM). It also gave an MIC [15] of 80 mg/L (≈ 312 µM), an IC50 [16] of 17 mg/L (≈ 66.3 µM) and an MIC [17] of 25 µM (≈ 6.41 µg/mL). The IC50 [18] was 20 µM, the IC50 [19] was 40 µM and the IC50 [20] was 96 mg/L (≈ 375 µM). It also gave an inhibition at 20 µg/mL [21] of 45%.
Work on O=C(CCc1ccc(O)cc1)c1c(O)cc(O)cc1O [PHLORETIN] yielded an MIC [22] of 16 µM (≈ 4.39 µg/mL), an inhibition at 20 µg/mL [23] of 60% and an MIC50 [24] of 230 µM (≈ 63.1 µg/mL). For the same compound, the MIC [25] was 16 µM (≈ 4.39 µg/mL), the inhibition at 0.4 µg/mL [26] was over 60% and the MIC [27] was 128 mg/L (≈ 467 µM). The MIC [28] was 7.81 mg/L (≈ 28.5 µM), the inhibition at 74.55 µg/mL [29] was 76% and the inhibition at 50 µg/mL [30] was 93%. For the same compound, the MIC [31] was 74.5 mg/L (≈ 272 µM), the inhibition (INH) [32] was 46.4% and the MIC50 [33] was 410 µM (≈ 112 µg/mL). For the same compound, the MIC [34] was 128 mg/L (≈ 467 µM), the MIC90 [35] was 182 µM (≈ 49.9 µg/mL) and the MBIC50 [36] was 256 µg/mL. For the same compound, the MIC [37] was 16 µM (≈ 4.39 µg/mL), the inhibition at 74.55 µg/mL [38] was 80% and the MIC [39] was 46.8 mg/L (≈ 171 µM). For the same compound, the “inhibition (INH)” value [40] was over 70%, the MIC [41] was 16 µM (≈ 4.39 µg/mL) and the MBIC50 [42] was 1 µg/mL. The MIC [43] was 74.5 mg/L (≈ 272 µM), the inhibition [44] was 20% and the MIC90 [45] was 182 µM (≈ 49.9 µg/mL). For the same compound, the IC50 [3] was 62.5 µM, the inhibition at 128 µg/mL [46] was at least 50% and the MIC [47] was 128 mg/L (≈ 467 µM). The IC50 [48] was 35.5 µM, the inhibition [49] was 60% and the MIC [50] was 128 mg/L (≈ 467 µM). The MIC [51] was 128 mg/L (≈ 467 µM), the inhibition [52] was 30% and the MIC [53] was 128 mg/L (≈ 467 µM). It also gave an inhibition at 1 µg/mL [54] of 60%, an MIC90 [55] of 182 µM (≈ 49.9 µg/mL) and an inhibition at 25 µg/mL [56] of 89%.

Source: ChEMBL document CHEMBL5365456, “Isolation and biological activity of natural chalcones based on antibacterial mechanism classification” (Bioorg Med Chem, 2023)
